The supplement of paper PMC10307832

Columns and labels:
Test in all cases: relative viability (nuclei count vs DMSO), 5 days (fraction); higher = more cells survive
[1] = compound: CCn1c(-c2nonc2N)nc2cnc(Oc3cccc(NC(=O)c4ccc(OCCN5CCOCC5)cc4)c3)cc21
Summary of the method: (§1)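 Five library-drug doses spaced by √10 were pinned onto vehicle-anchored 1536-well plates of lung cancer cell lines that had been kept overnight at 37 °C. Cells went 5 days without medium change, then were fixed, permeabilised and Hoechst-stained together, imaged at 4× and counted by MetaXpress. Viability is the ratio of treated-well to vehicle-well nuclei, taken as a median over plates. Plates required control CV below 25% and at least one doubling.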

[2] = compound: CCC1=CN=CN=C1N2CCN(CC2)CC3=NC4=C(N3)C=C(C=C4)C(F)(F)F
Summary of the method: as §1

Mirin = compound: N=C1NC(=O)/C(=C/c2ccc(O)cc2)S1 [Mirin]
Summary of the method: as §1

[3] = compound: CCC1=CN=CN=C1N2CCN(CC2)CC3=NC4=C(N3)C=C(C=C4)C(F)(F)F + COc1cc2c(Oc3ccc(NC(=O)C4(C(=O)Nc5ccc(F)cc5)CC4)cc3F)ccnc2cc1OCCCN1CCOCC1 [Foretinib] (partner 0.25 µM)
Summary of the method: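 Lung cancer cell lines were pin-tool dosed in 1536-well plates on the day after seeding, with either a lone drug or a fixed anchor-drug dose plus five library-drug doses (not always all listed) in √10 steps. Nuclei were counted on 4× images after 5 days. Relative viability is the ratio of treated-well to vehicle-well nuclei counts, with each value a median of duplicate plates.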

Cell Line	relative viability ([1]; 0.04 µM)	relative viability ([1]; 0.1265 µM)	relative viability ([1]; 0.4 µM)	relative viability ([1]; 1.265 µM)	relative viability ([1]; 4 µM)	relative viability ([2]; 0.04 µM)	relative viability ([2]; 0.1265 µM)	relative viability ([2]; 0.4 µM)	relative viability ([2]; 1.265 µM)	relative viability ([2]; 4 µM)	relative viability (Mirin; 0.25 µM)	relative viability (Mirin; 0.7906 µM)	relative viability (Mirin; 2.5 µM)	relative viability (Mirin; 7.906 µM)	relative viability (Mirin; 25 µM)	relative viability ([3]; first compound 0.04 µM)	relative viability ([3]; first compound 0.1265 µM)	relative viability ([3]; first compound 0.4 µM)	relative viability ([3]; first compound 1.265 µM)	relative viability ([3]; first compound 4 µM)
SW 900	0.892	0.946	0.917	0.716	0.83	0.842	0.928	0.866	0.626	0.857	1	0.773	0.888	0.98	0.869	0.778	0.825	0.81	0.795	0.793
NCI-H1944	0.977	0.946	0.577	0.576	0.336	1.11	0.929	0.847	0.652	0.852	0.979	0.952	0.971	0.898	0.625	1.1	0.844	0.809	0.648	0.694
NCI-H838	0.854	0.517	0.409	0.406	0.319	0.997	0.941	0.942	0.828	0.957	0.999	0.93	1.02	1.02	0.959	1.1	0.986	0.958	0.888	1.09
NCI-H1650	1.21	0.894	0.858	0.746	0.812	0.82	0.824	0.84	0.703	0.981	0.963	1.08	1	0.984	0.61	1.26	0.893	0.931	–	0.808
HCC-827	1.02	0.961	0.911	0.821	0.756	1.05	1.04	0.998	0.942	0.988	1.03	1.09	1.01	1.02	1.19	0.962	0.945	1.02	–	0.826
HCC-366	1.01	1.03	0.836	0.0886	0.098	1	0.979	0.988	–	1.05	1.03	0.868	0.982	1.03	0.947	0.856	1.01	0.915	0.877	0.851
HARA	1.11	0.782	0.563	0.258	0.28	0.891	0.902	0.863	0.654	1.08	1.09	0.803	0.918	0.939	0.916	0.85	0.952	0.836	–	0.828
NCI-H441	1.26	1.12	0.541	0.807	0.727	1.09	0.926	0.896	0.877	1.09	1.11	1.01	1.1	0.886	0.993	0.96	1.07	0.938	0.884	0.993
LXF-289	1.07	1.12	0.965	0.858	0.762	1.1	0.944	0.953	1.05	0.99	0.997	1.1	0.999	1.06	1.13	1.03	0.949	0.971	0.937	0.934
RERF-LC-KJ	1.02	0.971	0.872	0.619	0.637	0.956	0.968	1.01	0.924	0.991	1.07	1.08	1.01	1.04	1	0.763	0.755	0.82	0.851	0.82
CAL-12T	1.33	1.13	0.927	0.479	0.654	0.985	0.941	0.958	0.974	1.01	1.07	0.861	1.02	0.982	1.23	1.08	1.1	1.07	1.12	0.968
COR-L 105	0.919	0.776	0.761	0.43	0.443	0.875	0.932	0.978	0.746	0.906	1.09	1.12	1.06	1.02	0.833	1.25	0.941	1.04	0.941	1.16
NCI-H2405	1.05	0.668	0.254	0.318	0.327	0.968	0.989	0.981	–	1.11	0.967	0.928	0.974	0.968	0.997	1.06	1.02	1.06	–	1.12
NCI-H2228	1.26	0.964	0.908	0.919	0.881	1	0.858	0.99	0.928	0.98	1.09	0.89	0.969	0.886	1.02	1.09	0.848	0.647	0.746	0.801
PC-14	1.08	0.834	0.809	0.729	0.653	0.97	0.919	0.99	0.979	1	0.975	0.906	1.03	1.05	1.13	1.01	0.825	0.947	0.963	0.997
NCI-H2087	1.21	0.812	0.844	0.698	0.637	1.05	0.958	0.973	0.854	0.716	1.01	1	0.983	0.896	1.2	1	1.06	0.916	1.05	0.535
